Results on five molecules are retold here after ChEMBL document CHEMBL5212743, “Selectivity Literature for EUbOPEN Chemogenomics Library wave 3” (2023).

A word on the Kd: it is a measure of binding affinity in units of concentration.

Test [1] deals with Platelet-derived growth factor receptor beta (Homo sapiens, UniProt P09619). The test can be described thus: Selectivity interaction (KinomeScan (DiscoverX)) EUB0000698a PDGFRB. As to conditions: at 10 µM.
In test [2] the target is Rho-associated protein kinase 1 (Homo sapiens) (UniProt Q13464). The test can be described thus: Selectivity interaction (KinomeScan (DiscoverX)) EUB0000698a ROCK1. As to conditions: at 10 µM.
The target in test [3] is G protein-coupled receptor kinase 4 (Homo sapiens) (UniProt P32298). Kind of test: Selectivity interaction (KinomeScan (DiscoverX)) EUB0000702a GRK4. Conditions: at 1 µM.
The target of test [4] is T1, Mitogen-activated protein kinase kinase kinase 19 (Homo sapiens) (UniProt Q56UN5).
T1 sequence (whole entry): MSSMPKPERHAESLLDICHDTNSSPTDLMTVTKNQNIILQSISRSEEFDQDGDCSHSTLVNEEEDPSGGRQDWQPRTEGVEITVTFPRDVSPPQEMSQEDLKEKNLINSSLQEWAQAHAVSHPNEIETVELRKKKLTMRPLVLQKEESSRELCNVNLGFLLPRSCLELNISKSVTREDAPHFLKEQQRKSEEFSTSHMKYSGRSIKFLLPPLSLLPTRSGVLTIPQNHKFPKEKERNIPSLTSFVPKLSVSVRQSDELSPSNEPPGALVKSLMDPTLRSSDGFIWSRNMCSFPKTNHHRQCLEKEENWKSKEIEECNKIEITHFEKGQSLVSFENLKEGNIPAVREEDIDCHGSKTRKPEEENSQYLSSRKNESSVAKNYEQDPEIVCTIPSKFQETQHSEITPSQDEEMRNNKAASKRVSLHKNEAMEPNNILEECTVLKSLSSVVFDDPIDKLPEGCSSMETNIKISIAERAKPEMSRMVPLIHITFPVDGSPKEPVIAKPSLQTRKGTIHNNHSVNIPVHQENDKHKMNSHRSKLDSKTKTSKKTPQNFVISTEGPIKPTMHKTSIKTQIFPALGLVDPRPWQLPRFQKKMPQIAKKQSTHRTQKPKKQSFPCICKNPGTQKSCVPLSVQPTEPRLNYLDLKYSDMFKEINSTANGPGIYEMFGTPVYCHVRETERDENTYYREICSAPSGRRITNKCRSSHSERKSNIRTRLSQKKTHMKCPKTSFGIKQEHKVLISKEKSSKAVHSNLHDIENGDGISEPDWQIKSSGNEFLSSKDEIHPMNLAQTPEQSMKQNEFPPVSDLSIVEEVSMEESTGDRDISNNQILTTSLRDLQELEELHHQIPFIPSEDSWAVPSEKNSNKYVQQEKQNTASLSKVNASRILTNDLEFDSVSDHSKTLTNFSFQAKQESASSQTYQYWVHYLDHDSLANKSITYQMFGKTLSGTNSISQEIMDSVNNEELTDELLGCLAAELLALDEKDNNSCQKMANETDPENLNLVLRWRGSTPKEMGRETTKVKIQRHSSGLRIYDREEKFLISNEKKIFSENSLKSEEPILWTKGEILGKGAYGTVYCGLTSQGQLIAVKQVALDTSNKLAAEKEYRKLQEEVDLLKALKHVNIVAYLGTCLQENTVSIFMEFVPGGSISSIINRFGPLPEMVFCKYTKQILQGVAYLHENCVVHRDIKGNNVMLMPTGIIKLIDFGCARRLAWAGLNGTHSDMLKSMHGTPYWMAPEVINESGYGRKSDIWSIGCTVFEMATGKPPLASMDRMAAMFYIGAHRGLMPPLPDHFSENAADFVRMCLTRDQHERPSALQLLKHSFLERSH
Kind of test: Selectivity interaction (KinomeScan (DiscoverX)) EUB0000702a MAP3K19. As to conditions: at 1 µM.

Test [5] has as its target Tyrosine-protein kinase Fer (Homo sapiens, UniProt P16591). As to conditions: at 1 µM.
Test [6] relates to ALK tyrosine kinase receptor (Homo sapiens), Q9UM73 [C1156Y]. Kind of test: Selectivity interaction (KinomeScan (DiscoverX)) EUB0000169b ALK. As to conditions: at 1 µM.
Test [7] deals with T2, Serine/threonine-protein kinase Sgk1 (Homo sapiens) (UniProt O00141).
T2 sequence (whole entry): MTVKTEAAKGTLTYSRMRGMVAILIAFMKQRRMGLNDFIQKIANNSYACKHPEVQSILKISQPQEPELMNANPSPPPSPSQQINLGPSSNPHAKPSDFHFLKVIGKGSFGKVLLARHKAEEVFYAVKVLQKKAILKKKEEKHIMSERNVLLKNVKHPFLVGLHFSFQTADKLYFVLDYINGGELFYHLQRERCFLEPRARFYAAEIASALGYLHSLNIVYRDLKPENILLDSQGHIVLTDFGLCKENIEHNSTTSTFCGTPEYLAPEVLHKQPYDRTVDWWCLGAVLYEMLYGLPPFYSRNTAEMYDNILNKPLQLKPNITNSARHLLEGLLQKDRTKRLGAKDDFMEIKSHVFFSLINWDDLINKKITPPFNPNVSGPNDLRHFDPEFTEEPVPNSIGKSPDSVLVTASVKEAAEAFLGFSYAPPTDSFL
Kind of test: Selectivity interaction (Kinase panel (University of Dundee)) EUB0000169b SGK1. Conditions: at 10 µM.

Test [8] concerns the target Mitogen-activated protein kinase kinase kinase 19 (Homo sapiens, UniProt Q56UN5). The test can be described thus: Selectivity interaction (KinomeScan (DiscoverX, competition-binding assay)) EUB0000305b MAP3K19.

Sequence of Tyrosine-protein kinase Fer (P16591 whole entry, looked up): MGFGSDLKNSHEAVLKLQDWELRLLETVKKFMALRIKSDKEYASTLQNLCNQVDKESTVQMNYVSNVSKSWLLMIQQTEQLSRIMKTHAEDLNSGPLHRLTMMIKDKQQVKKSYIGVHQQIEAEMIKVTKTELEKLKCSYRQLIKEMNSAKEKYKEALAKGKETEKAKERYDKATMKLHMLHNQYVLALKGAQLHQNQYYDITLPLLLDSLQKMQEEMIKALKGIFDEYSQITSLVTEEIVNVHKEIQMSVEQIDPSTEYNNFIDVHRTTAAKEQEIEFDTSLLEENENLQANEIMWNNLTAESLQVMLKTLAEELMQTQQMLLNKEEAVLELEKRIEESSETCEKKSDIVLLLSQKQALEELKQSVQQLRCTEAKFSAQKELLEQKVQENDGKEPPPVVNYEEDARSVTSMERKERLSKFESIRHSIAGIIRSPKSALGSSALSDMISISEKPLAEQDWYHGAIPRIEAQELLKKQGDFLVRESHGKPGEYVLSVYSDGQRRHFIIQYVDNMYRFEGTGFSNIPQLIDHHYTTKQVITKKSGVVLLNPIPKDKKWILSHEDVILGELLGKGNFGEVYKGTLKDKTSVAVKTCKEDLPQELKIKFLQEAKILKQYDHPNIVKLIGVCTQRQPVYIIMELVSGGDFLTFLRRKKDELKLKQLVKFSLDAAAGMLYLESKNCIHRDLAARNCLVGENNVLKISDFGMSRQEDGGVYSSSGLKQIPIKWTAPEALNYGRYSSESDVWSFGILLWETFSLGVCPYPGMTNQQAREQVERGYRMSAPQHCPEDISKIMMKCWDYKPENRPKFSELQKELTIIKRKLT
Sequence of Platelet-derived growth factor receptor beta (P09619 whole entry): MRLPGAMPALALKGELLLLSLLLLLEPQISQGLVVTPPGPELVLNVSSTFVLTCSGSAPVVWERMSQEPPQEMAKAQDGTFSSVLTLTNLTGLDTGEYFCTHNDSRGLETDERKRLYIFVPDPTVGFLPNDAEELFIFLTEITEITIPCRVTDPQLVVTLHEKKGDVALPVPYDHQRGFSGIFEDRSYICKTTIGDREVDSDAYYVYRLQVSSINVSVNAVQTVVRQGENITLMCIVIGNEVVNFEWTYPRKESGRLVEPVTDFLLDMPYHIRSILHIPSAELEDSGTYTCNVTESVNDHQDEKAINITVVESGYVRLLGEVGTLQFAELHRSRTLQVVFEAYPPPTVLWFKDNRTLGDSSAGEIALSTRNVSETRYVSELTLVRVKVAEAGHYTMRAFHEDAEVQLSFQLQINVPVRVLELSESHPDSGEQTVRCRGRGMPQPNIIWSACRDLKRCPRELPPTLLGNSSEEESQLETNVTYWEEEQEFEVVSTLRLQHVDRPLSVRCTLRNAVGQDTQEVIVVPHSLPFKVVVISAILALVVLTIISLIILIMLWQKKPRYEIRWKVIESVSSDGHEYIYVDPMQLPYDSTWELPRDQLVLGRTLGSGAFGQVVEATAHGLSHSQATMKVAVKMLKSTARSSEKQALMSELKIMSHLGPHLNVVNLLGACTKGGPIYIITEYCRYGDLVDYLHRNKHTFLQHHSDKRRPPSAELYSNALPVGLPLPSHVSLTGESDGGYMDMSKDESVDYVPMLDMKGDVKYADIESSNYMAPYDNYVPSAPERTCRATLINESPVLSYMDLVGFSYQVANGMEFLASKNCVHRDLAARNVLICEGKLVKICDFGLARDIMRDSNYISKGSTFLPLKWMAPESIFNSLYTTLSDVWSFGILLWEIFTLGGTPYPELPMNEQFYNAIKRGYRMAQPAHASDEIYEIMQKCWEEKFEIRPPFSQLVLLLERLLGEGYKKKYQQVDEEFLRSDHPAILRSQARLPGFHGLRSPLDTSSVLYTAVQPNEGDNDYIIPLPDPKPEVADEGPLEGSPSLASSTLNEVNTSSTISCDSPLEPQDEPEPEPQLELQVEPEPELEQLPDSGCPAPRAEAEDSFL
Sequence of ALK tyrosine kinase receptor (Homo sapiens), Q9UM73 [C1156Y] (Q9UM73 whole entry C1156Y, looked up): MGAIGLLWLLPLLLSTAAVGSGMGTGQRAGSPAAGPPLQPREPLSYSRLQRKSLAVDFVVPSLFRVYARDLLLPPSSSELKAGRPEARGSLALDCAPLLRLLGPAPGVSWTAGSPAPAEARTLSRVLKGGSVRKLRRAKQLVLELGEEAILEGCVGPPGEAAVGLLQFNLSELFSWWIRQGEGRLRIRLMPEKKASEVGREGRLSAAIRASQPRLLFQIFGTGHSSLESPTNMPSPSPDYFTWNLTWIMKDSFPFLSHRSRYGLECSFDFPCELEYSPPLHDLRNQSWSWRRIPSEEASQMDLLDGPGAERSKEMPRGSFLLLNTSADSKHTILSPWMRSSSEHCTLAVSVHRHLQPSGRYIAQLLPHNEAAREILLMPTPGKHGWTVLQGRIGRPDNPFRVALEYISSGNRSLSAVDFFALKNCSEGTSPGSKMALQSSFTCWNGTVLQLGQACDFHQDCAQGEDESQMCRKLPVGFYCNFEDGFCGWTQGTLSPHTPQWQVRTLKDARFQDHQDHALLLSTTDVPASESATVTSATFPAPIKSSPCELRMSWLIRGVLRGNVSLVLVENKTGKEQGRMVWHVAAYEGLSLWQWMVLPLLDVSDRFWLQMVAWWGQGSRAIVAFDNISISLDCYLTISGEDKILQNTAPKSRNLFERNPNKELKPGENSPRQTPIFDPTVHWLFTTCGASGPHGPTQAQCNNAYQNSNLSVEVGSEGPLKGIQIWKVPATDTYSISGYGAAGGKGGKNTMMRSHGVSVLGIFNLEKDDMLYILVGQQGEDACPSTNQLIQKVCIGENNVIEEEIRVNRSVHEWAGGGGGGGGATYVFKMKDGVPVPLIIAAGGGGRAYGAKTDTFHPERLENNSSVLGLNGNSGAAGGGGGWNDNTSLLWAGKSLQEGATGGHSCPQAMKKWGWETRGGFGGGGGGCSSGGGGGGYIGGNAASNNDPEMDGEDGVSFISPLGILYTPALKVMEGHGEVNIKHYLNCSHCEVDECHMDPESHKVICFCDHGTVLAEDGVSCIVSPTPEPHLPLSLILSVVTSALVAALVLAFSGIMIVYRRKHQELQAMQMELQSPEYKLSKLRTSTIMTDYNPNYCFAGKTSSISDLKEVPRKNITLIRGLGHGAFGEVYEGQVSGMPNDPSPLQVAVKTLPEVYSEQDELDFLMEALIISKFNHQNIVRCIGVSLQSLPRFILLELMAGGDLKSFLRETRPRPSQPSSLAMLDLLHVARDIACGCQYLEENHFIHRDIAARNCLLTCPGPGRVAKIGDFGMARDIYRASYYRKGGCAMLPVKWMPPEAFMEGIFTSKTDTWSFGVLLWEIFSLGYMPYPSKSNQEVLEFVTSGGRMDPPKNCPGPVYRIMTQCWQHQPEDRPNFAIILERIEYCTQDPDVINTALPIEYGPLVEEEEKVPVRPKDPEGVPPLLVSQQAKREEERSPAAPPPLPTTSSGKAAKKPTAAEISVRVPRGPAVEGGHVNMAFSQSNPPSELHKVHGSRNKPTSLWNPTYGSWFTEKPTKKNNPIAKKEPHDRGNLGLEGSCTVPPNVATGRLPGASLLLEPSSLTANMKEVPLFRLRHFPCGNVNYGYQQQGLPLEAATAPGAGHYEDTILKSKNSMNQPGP
Sequence of Rho-associated protein kinase 1 (Homo sapiens) (Q13464 2-1354 limits assumed): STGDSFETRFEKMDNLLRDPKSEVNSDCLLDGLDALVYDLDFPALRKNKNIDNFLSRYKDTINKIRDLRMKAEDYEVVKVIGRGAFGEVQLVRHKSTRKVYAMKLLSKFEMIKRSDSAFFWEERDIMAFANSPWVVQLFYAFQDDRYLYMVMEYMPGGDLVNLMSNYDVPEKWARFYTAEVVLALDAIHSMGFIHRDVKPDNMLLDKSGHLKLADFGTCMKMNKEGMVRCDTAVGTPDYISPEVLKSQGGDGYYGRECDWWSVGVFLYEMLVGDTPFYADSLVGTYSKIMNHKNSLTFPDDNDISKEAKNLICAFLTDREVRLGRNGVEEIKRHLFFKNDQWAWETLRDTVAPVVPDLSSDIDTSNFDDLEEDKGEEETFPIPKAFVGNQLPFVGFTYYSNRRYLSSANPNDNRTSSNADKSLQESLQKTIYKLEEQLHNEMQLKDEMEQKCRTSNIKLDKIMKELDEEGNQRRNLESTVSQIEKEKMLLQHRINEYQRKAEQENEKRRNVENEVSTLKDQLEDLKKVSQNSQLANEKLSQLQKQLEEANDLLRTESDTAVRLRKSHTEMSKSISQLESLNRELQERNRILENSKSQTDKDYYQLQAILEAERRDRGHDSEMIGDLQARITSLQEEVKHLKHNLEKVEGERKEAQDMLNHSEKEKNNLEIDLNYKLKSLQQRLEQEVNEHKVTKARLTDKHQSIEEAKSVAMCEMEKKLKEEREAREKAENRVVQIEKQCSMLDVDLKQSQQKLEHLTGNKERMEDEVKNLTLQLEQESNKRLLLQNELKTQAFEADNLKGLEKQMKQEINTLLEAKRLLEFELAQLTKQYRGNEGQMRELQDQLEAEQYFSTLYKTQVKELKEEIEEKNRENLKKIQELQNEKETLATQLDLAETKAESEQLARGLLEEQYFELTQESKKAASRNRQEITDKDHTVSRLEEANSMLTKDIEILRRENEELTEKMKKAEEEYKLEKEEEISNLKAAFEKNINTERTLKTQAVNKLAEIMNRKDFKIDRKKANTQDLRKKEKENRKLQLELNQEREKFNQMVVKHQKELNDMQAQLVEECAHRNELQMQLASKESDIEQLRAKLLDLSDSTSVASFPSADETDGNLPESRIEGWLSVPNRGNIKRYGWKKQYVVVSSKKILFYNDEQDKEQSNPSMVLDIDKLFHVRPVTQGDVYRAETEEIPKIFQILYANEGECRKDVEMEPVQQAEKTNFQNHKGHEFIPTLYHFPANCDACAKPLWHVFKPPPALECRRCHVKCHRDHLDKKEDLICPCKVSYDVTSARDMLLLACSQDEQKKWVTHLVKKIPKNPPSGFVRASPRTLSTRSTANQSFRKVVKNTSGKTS

Regarding `COc1cc2ncn(-c3cc(OCc4ccccc4C(F)(F)F)c(C(N)=O)s3)c2cc1OC` [GW843682X], the % of control came out at 5.3% in test [1] and 4.7% in test [2]. For `CN(c1ccnc(CNc2nc(Nc3ccc4c(c3)CC(=O)N4)ncc2C(F)(F)F)n1)S(C)(=O)=O` [PF-00911705], the % of control in test [3] turned out to be 10%; in test [4], 0.4%. On to `CCOc1cn(-c2ccc(F)cc2C)nc1C(=O)Nc1ccc(Oc2ccnc3cc(OC)c(OC)cc23)c(F)c1`, for which, in test [5], the % of control is less than 10%. For the molecule `CC[C@@H]1C(=O)N(C)c2cnc(Nc3ccc(C(=O)NC4CCN(C)CC4)cc3OC)nc2N1C1CCCC1`, the % of control was 0.3% in test [6] and 80% in test [7]. As for `C[C@H](c1ccnc(Nc2nc3ccc(-c4cc(N(C)C)ncn4)cc3[nH]2)c1)N1CCN(C(=O)CC(F)(F)F)CC1` [BAY-985], binding in test [8] was characterised by a dissociation constant (Kd) of 9.6 nM.
